Assay results taken from ChEMBL document CHEMBL3603774, “Novel 5-functionalized-pyrazoles: Synthesis, characterization and pharmacological screening” (Bioorg Med Chem Lett, 2015).
≈ marks a conversion by molar mass, not a printed value.

What was measured:
[1] = system: Escherichia coli; experiment: Antibacterial activity against Escherichia coli MTCC 724 at 50 ug/ml after 24 hrs by disc diffusion method; type: functional; conditions: MTCC 724, 24 h, read-out: IZ
[2] = system: Escherichia coli; experiment: Antibacterial activity against Escherichia coli MTCC 724 at 100 ug/ml after 24 hrs by disc diffusion method; type: functional; conditions: MTCC 724, 24 h, read-out: IZ
[3] = system: Staphylococcus aureus; experiment: Antibacterial activity against Staphylococcus aureus MTCC 96 after 24 hrs by microdilution method; type: functional; conditions: MTCC 96, 24 h
[4] = system: Escherichia coli; experiment: Antibacterial activity against Escherichia coli MTCC 724 after 24 hrs by microdilution method; type: functional; conditions: MTCC 724, 24 h
[5] = system: Bacillus cereus; experiment: Antibacterial activity against Bacillus cereus MTCC 8372 assessed as concentration required to completely destroy test microorganisms after 24 hrs; type: functional; conditions: MTCC 8372, 24 h
[6] = system: Aspergillus niger; experiment: Antifungal activity against Aspergillus niger MTCC 281 at 100 ug/ml after 24 hrs by disc diffusion method; type: functional; conditions: MTCC 281, 24 h, read-out: IZ
[7] = system: Aspergillus niger; experiment: Antifungal activity against Aspergillus niger MTCC 281 assessed as concentration required to completely destroy test microorganisms after 24 hrs; type: functional; conditions: MTCC 281, 24 h
[8] = system: Staphylococcus aureus; experiment: Antibacterial activity against Staphylococcus aureus MTCC 96 at 50 ug/ml after 24 hrs by disc diffusion method; type: functional; conditions: MTCC 96, 24 h, read-out: IZ
[9] = system: Klebsiella pneumoniae; experiment: Antibacterial activity against Klebsiella pneumoniae MTCC 3384 after 24 hrs by microdilution method; type: functional; conditions: MTCC 3384, 24 h
[10] = Inhibition of alpha-glucosidase (unknown origin) using p-nitrophenol glycoside as substrate after 30 mins by colorimetric analysis; set-up: species or system Homo sapiens
[11] = system: Klebsiella pneumoniae; experiment: Antibacterial activity against Klebsiella pneumoniae MTCC 3384 assessed as concentration required to completely destroy test microorganisms after 24 hrs; type: functional; conditions: MTCC 3384, 24 h
[12] = system: Staphylococcus aureus; experiment: Antibacterial activity against Staphylococcus aureus MTCC 96 at 100 ug/ml after 24 hrs by disc diffusion method; type: functional; conditions: MTCC 96, 24 h, read-out: IZ
[13] = system: Aspergillus niger; experiment: Antifungal activity against Aspergillus niger MTCC 281 after 48 hrs by microdilution method; type: functional; conditions: MTCC 281, 48 h
[14] = system: Bacillus cereus; experiment: Antibacterial activity against Bacillus cereus MTCC 8372 at 50 ug/ml after 24 hrs by disc diffusion method; type: functional; conditions: MTCC 8372, 24 h, read-out: IZ
[15] = system: Klebsiella pneumoniae; experiment: Antibacterial activity against Klebsiella pneumoniae MTCC 3384 at 50 ug/ml after 24 hrs by disc diffusion method; type: functional; conditions: MTCC 3384, 24 h, read-out: IZ
[16] = system: Aspergillus flavus; experiment: Antifungal activity against Aspergillus flavus MTCC 873 assessed as concentration required to completely destroy test microorganisms after 24 hrs; type: functional; conditions: MTCC 873, 24 h
[17] = system: Aspergillus flavus; experiment: Antifungal activity against Aspergillus flavus MTCC 873 at 50 ug/ml after 24 hrs by disc diffusion method; type: functional; conditions: MTCC 873, 24 h, read-out: IZ
[18] = system: Staphylococcus aureus; experiment: Antibacterial activity against Staphylococcus aureus MTCC 96 assessed as concentration required to completely destroy test microorganisms after 24 hrs; type: functional; conditions: MTCC 96, 24 h
[19] = system: Escherichia coli; experiment: Antibacterial activity against Escherichia coli MTCC 724 assessed as concentration required to completely destroy test microorganisms after 24 hrs; type: functional; conditions: MTCC 724, 24 h
[20] = system: Klebsiella pneumoniae; experiment: Antibacterial activity against Klebsiella pneumoniae MTCC 3384 at 100 ug/ml after 24 hrs by disc diffusion method; type: functional; conditions: MTCC 3384, 24 h, read-out: IZ
[21] = target: T1, Alpha amylase (Homo sapiens, UniProt P0DUB6); experiment: Inhibition of alpha-amylase (unknown origin) using starch as substrate after 30 mins by spectrophotometer analysis
T1 sequence (P0DUB6 whole entry): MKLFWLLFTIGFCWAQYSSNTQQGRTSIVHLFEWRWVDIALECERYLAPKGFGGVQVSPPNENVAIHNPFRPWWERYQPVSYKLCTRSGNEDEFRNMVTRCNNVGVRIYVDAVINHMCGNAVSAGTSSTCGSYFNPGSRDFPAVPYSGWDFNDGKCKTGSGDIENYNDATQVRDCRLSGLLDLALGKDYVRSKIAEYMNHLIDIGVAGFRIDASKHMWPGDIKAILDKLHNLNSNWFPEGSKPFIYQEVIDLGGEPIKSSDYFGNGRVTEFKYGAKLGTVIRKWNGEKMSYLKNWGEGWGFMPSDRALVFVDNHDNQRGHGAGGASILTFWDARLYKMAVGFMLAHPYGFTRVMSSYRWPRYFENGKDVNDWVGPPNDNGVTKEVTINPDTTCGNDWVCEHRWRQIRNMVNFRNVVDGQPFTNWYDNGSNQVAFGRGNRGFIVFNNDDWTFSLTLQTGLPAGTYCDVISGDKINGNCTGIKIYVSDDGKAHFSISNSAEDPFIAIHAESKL

[22] = system: Aspergillus flavus; experiment: Antifungal activity against Aspergillus flavus MTCC 873 at 100 ug/ml after 24 hrs by disc diffusion method; type: functional; conditions: MTCC 873, 24 h, read-out: IZ
[23] = system: Aspergillus niger; experiment: Antifungal activity against Aspergillus niger MTCC 281 at 50 ug/ml after 24 hrs by disc diffusion method; type: functional; conditions: MTCC 281, 24 h, read-out: IZ
[24] = system: Aspergillus flavus; experiment: Antifungal activity against Aspergillus flavus MTCC 873 after 48 hrs by microdilution method; type: functional; conditions: MTCC 873, 48 h
[25] = system: Bacillus cereus; experiment: Antibacterial activity against Bacillus cereus MTCC 8372 at 100 ug/ml after 24 hrs by disc diffusion method; type: functional; conditions: MTCC 8372, 24 h, read-out: IZ
[26] = system: Bacillus cereus; experiment: Antibacterial activity against Bacillus cereus MTCC 8372 after 24 hrs by microdilution method; type: functional; conditions: MTCC 8372, 24 h

Row | SMILES | zone of inhibition at 50 µg/mL [1] [mm] | zone of inhibition at 100 µg/mL [2] [mm] | MIC [3] [µg/mL] | MIC [4] [µg/mL] | MBC [5] [µg/mL] | zone of inhibition at 100 µg/mL [6] [mm] | MFC [7] [µg/mL] | zone of inhibition at 50 µg/mL [8] [mm] | MIC [9] [µg/mL] | IC50 [10] [µg/mL] | MBC [11] [µg/mL] | zone of inhibition at 100 µg/mL [12] [mm] | MIC [13] [µg/mL] | zone of inhibition at 50 µg/mL [14] [mm] | zone of inhibition at 50 µg/mL [15] [mm] | MFC [16] [µg/mL] | zone of inhibition at 50 µg/mL [17] [mm] | MBC [18] [µg/mL] | MBC [19] [µg/mL] | zone of inhibition at 100 µg/mL [20] [mm] | further results
1 | CCOC(=O)c1c(-c2ccccc2)nn(-c2ccccc2)c1Cn1cnc2ccccc21 | 8 | 10 | 55 (≈ 130 µM) | 55 (≈ 130 µM) | 285 (≈ 675 µM) | 20 | 280 (≈ 663 µM) | 6 | 40 (≈ 94.7 µM) | 30 (≈ 71 µM) | 220 (≈ 521 µM) | 12 | 50 (≈ 118 µM) | 6 | 6 | 275 (≈ 651 µM) | 12 | 290 (≈ 686 µM) | 270 (≈ 639 µM) | 10 | IC50 [21]: 35 µg/mL (≈ 82.8 µM); zone of inhibition at 100 µg/mL [22]: 15 mm; zone of inhibition at 50 µg/mL [23]: 25 mm; MIC [24]: 45 µg/mL (≈ 107 µM); zone of inhibition at 100 µg/mL [25]: 12 mm; MIC [26]: 60 µg/mL (≈ 142 µM)
2 | CCOC(=O)c1c(-c2ccccc2)nn(-c2ccccc2)c1Cn1cnc2cc([N+](=O)[O-])ccc21 | 8 | 18 | 25 (≈ 53.5 µM) | 25 (≈ 53.5 µM) | 200 (≈ 428 µM) | 10 | 280 (≈ 599 µM) | 6 | 25 (≈ 53.5 µM) | 30 (≈ 64.2 µM) | 185 (≈ 396 µM) | 12 | 65 (≈ 139 µM) | 5 | 6 | 290 (≈ 620 µM) | 6 | 190 (≈ 406 µM) | 180 (≈ 385 µM) | 11 | IC50 [21]: 30 µg/mL (≈ 64.2 µM); zone of inhibition at 100 µg/mL [22]: 10 mm; zone of inhibition at 50 µg/mL [23]: 5 mm; MIC [24]: 55 µg/mL (≈ 118 µM); zone of inhibition at 100 µg/mL [25]: 10 mm; MIC [26]: 35 µg/mL (≈ 74.9 µM)
3 | CCOC(=O)c1c(-c2ccccc2)nn(-c2ccccc2)c1COc1ccccc1C=O | 3 | 8 | 55 (≈ 129 µM) | 65 (≈ 152 µM) | 250 (≈ 586 µM) | 10 | 225 (≈ 528 µM) | 2 | 85 (≈ 199 µM) | 40 (≈ 93.8 µM) | 260 (≈ 610 µM) | 12 | 50 (≈ 117 µM) | 4 | 6 | 270 (≈ 633 µM) | 10 | 220 (≈ 516 µM) | 250 (≈ 586 µM) | 9 | IC50 [21]: 40 µg/mL (≈ 93.8 µM); zone of inhibition at 100 µg/mL [22]: 5 mm; zone of inhibition at 50 µg/mL [23]: 10 mm; MIC [24]: 50 µg/mL (≈ 117 µM); zone of inhibition at 100 µg/mL [25]: 16 mm; MIC [26]: 45 µg/mL (≈ 106 µM)
